Reference: patent US20050228180A1, “Alpha, omega-dicarboximide derivatives as useful uro-selective a1a adrenoceptor blockers” (priority 2002, published 2005)
Where a name gives a salt, the structure may show the parent alone. One block for each compound: values may come before it.

Key:
conscious beagle dogs = assay: In vivo uroselectivity study: phenylephrine response on MAP and IUP; set-up: species or system dog; settings: 3 μg/kg p.o.
Description: In order to assess the uroselectivity in vivo, the effects of these compounds were studied on mean arterial pressure (MAP) and intraurethral pressure (UP) in conscious beagle dogs as per the method of Brune et al. (Pharmacol., 1996, 53:356). Briefly, male dogs were instrumented for chronic continuous measurement of arterial blood pressure by implanting a telemetry transmitter (TL11M2-D70-PCT, Data Sci. International, St. Paul, Minn. USA) into the femoral artery, two weeks prior to the study. During the recovery period, the animal was acclimatized to stay in the sling restraint. On the day of testing, overnight fasted animal was placed in the sling restraint. A Swan-Ganz. Balloon tipped catheter was introduced into the urethra at the level of prostate and the balloon was inflated (Brune. et. al. 1996). After recording the base line readings, effect of 16 μg/kg, phenylephrine (i.v.) on MAP and IUP was recorded. The response of phenylephrine to MAP and […] were recorded at 0.5, 1, 2, 3, 4, 6, 9 and 24 hours after the oral administration of vehicle or the test drug. The changes in MAP were recorded on line using Dataquest Software (Data Sci. International, St. Paul, Minn. USA). The change in phenylephrine response on […] administration after the test drug administration was calculated as percent change of that of control values. Area under curve was calculated, and the ratio of the values for MAP and IUP was used for calculating the uroselectivity (Table III).

α1A adrenoceptor = target: T1, α1A adrenoceptor (Rattus norvegicus, UniProt P43140); assay: Radioligand binding, [3H] prazosin displacement, rat submaxillary membranes; settings: for Ki: [3H] prazosin displacement, rat submaxillary membranes, read-out: Affinity (Ki) α1A (Rat Submaxillary); for α1B/α1A: ratio of binding affinities, rat liver / rat submaxillary
T1 construct: from tissue; host or cells: rat submaxillary gland membranes
T1 sequence (P43140 1-466): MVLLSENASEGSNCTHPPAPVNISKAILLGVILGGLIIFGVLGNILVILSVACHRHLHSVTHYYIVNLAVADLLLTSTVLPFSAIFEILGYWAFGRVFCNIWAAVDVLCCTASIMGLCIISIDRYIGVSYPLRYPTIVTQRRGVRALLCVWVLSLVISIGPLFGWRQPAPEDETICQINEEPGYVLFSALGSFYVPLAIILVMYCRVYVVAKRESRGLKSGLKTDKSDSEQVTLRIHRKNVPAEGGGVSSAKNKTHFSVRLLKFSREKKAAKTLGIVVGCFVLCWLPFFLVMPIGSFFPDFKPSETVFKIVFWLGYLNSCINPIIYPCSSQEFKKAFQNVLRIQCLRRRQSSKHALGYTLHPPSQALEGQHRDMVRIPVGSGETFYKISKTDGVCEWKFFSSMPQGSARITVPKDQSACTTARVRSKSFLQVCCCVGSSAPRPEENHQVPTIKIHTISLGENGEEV
Procedure, shortened: (§1)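 Displacement of [3H]prazosin measured by filtration and counting, with Ki from IC50 via Cheng–Prusoff and nonspecific binding set by 300 nM prazosin. Native rat submaxillary (α1A) or liver (α1B) membranes, 150-250 μg protein, 1 h at 24-25° C in Tris/EDTA pH 7.4.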

[1] = target: T2, α1B adrenoceptor (spleen) (Rattus norvegicus, UniProt P15823); assay: In vitro functional assay, isolated spleen, phenylepinephrine contraction; assay type: cell-based; settings: read-out: α Adrenoceptor Subtype (pKB) α1B (converted)
T2 construct: Isolated tissues were mounted in organ bath containing Krebs Henseleit buffer; from tissue; host or cells: isolated rat spleen
T2 sequence (P15823 1-515): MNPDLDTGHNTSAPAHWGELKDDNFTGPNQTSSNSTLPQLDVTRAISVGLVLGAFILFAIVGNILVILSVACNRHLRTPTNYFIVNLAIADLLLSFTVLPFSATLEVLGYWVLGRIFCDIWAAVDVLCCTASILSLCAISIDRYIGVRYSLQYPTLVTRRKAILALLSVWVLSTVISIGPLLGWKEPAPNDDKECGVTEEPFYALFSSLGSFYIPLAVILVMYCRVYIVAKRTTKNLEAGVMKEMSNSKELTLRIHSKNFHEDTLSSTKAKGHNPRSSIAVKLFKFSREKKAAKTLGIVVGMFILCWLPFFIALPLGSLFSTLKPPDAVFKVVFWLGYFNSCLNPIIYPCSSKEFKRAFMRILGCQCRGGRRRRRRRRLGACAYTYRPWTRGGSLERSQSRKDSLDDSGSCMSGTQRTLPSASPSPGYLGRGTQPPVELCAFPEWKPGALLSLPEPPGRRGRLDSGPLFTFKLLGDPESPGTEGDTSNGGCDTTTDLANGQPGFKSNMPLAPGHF
Description: (§2) In order to study selectivity of action of these compounds towards different a-adrenoceptor subtypes, the ability of these compounds to antagonise (α1D) prostate (α1A) and spleen (α1B) was studied. Aorta and spleen tissues were isolated from urethane anaesthetized (1.5 g/kg) male wister rats. Isolated tissues were mounted in organ bath containing Krebs Henseleit buffer of the following composition (mM): NaCl 118; KCl 4.7; CaCl2 2.5; MgSO4 7H2O 1.2; NaHCO3 25; KH2PO4 1.2; glucose 11.5. Buffer was maintained at 37° C. and aereated with a mixture of 95% O2 and 5% CO2. A resting tension of 2 g (aorta) or 1 g (spleen and prostate) was applied to tissues. Contractile response was monitored using a force displacement transducer and recorded on chart recorders. Tissues were allowed to equilibrate for 2 hours. At the end of equilibration period, concentration response curves to norepinephrine (aorta) and phenylepinephrine (spleen and prostate) were obtained in the absence and presence of tested compound (at concentration of […]). Antagonist affinity was calculated and expressed as pKB values in Table II.

α1B adrenoceptor = target: T3, α1B adrenoceptor (Rattus norvegicus, UniProt P15823); assay: Radioligand binding, [3H] prazosin displacement, rat liver membranes; settings: read-out: Affinity (Ki) α1B (Rat Liver)
T3 construct: from tissue; host or cells: rat liver membranes
T3 sequence (P15823 1-515): T2 sequence (P15823 1-515)
Procedure, shortened: as §1

α1D adrenoceptor (aorta) = target: T4, α1D adrenoceptor (aorta) (Rattus norvegicus, UniProt P23944); assay: In vitro functional assay, isolated aorta, norepinephrine contraction; assay type: cell-based; settings: read-out: α Adrenoceptor Subtype (pKB) α1D (converted)
T4 construct: Isolated tissues were mounted in organ bath containing Krebs Henseleit buffer; from tissue; host or cells: isolated rat aorta
T4 sequence (P23944 1-561): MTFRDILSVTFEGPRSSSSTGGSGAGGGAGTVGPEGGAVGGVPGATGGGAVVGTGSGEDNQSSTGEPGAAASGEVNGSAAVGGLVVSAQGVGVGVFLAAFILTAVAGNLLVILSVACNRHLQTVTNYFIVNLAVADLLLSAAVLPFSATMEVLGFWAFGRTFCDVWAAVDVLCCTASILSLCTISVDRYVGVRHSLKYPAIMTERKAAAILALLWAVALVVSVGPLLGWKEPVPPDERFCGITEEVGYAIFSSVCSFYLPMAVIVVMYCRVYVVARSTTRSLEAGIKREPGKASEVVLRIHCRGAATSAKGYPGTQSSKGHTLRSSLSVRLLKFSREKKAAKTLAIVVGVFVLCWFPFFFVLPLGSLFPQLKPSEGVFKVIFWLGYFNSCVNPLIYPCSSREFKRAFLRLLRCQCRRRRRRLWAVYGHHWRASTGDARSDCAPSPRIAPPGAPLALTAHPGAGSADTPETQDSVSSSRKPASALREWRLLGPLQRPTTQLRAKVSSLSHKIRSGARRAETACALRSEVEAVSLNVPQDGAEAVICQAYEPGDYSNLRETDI
Description: as §2

[2] = target: T5, α1A adrenoceptor (prostate) (Rattus norvegicus, UniProt P43140); assay: In vitro functional assay, isolated prostate, phenylepinephrine contraction; assay type: cell-based; settings: for Selectivity α1B/α1A / Selectivity α1D/α1A: functional, from pKB; for Kb: rat prostate, phenylepinephrine, read-out: α Adrenoceptor Subtype (pKB) α1A (converted)
T5 construct: from tissue; host or cells: isolated prostate tissue
T5 sequence (P43140 1-466): T1 sequence (P43140 1-466)
Description: as §2

[3] = percent change of phenylephrine response over 24 hours

Compound: CC(=O)OC1C=CCC2C(=O)N(CCCN3CCN(c4ccccc4OC(C)C)CC3)C(=O)C12 (centres unmarked) (as salt: hydrochloride) [Compound No. 40, 2-[3-{4-(2-Isopropoxyphenyl)piperazin-1-yllpropyl]4-acetoxy-3a,4,7,7a-tetrahydro-1H-isoindole-1,3(2H)-dione hydrochloride]
melting point: 224 to 227 °C

Compound: CCOc1ccccc1OCCN[C@H](C)Cc1ccc(OC)c(S(N)(=O)=O)c1 (racemic) [Tamsulosin (SR), Tamsulosin, reference compound]
Uroselectivity Ratio IUP/MAP (conscious beagle dogs): 1.47
Area Under Curve IUP (conscious beagle dogs; [3]): 592
Area Under Curve MAP (conscious beagle dogs; [3]): 868

Compound: CC(=O)OC1C=CC(OC(C)=O)C2C(=O)N(CCCN3CCN(c4ccccc4OC(C)C)CC3)C(=O)C12.Cl (centres unmarked) [Compound No. 73, 2-[3-{4-(2-Isopropoxyphenyl)piperazin-1-yl}propyl]-4,7-diacetoxy-3a,4,7,7a-tetrahydro-1H-isoindole-1,3(2H)-dione hydrochloride]
Ki (α1A adrenoceptor): 8.45 nM
α1B/α1A (α1A adrenoceptor): 23
melting point: 176 to 177 °C
Ki (α1B adrenoceptor): 192 nM

Compound: Cl.O=C1CCCC(=O)N1CCCN1CCN(c2ccccc2O)CC1 [compound 01, 1-[4-(2-Hydroxyphenyl)piperazin-1-yl]-3-(2,6-dioxopiperidin-1-yl)propane hydrochloride]
Ki (α1A adrenoceptor): 8.55 nM
α1B/α1A (α1A adrenoceptor): 9
Kb [1]: 38 nM
Ki (α1B adrenoceptor): 80 nM
Kb (α1D adrenoceptor (aorta)): 12 nM
Selectivity α1B/α1A [2]: 3.8
Selectivity α1D/α1A [2]: 1.2
Kb [2]: 10 nM

Compound: CC(C)Oc1ccccc1N1CCN(CC(O)CN2C(=O)C3CC=CCC3C2=O)CC1.Cl (centres unmarked) [compound 07, 2-[3-{4-(2-Isopropoxyphenyl)piperazin-1-yl}-2-hydroxypropyl]-3a,4,7,7a-tetrahydro-1H-isoindole-1,3(2H)-dione hydrochloride]
Ki (α1A adrenoceptor): 0.56 nM
α1B/α1A (α1A adrenoceptor): 189
Kb [1]: 15.8 nM
Ki (α1B adrenoceptor): 106 nM
Kb (α1D adrenoceptor (aorta)): 2.29 nM
Selectivity α1B/α1A [2]: 13
Selectivity α1D/α1A [2]: 1.9
Kb [2]: 1.23 nM

Compound: CC(C)Oc1ccccc1N1CC[N+]([O-])(CCCN2C(=O)C3CC=CCC3C2=O)CC1 (centres unmarked) [compound 08, 2-[3-{4-(2-Isopropoxyphenyl)piperazin-1-yl, 1-N-oxide}propyl]-3a,4,7,7a-tetrahydro-1H-isoindole-1,3(2H)-dione]
Ki (α1A adrenoceptor): 6.6 nM
α1B/α1A (α1A adrenoceptor): 722
Kb [1]: 1.02 nM
Ki (α1B adrenoceptor): 4770 nM
Kb (α1D adrenoceptor (aorta)): 21.9 nM
Selectivity α1B/α1A [2]: 0.24
Selectivity α1D/α1A [2]: 5.24
Kb [2]: 4.17 nM

Compound: CC(C)Oc1ccccc1[N+]1([O-])CC[N+]([O-])(CCCN2C(=O)C3CC=CCC3C2=O)CC1 (centres unmarked) [compound 09, 2-[3-{4-(2-Isopropoxyphenyl)piperazin-1-yl, 1,4-N,N-dioxide}propyl]-3a,4,7,7a-tetrahydro-1H-isoindole-1,3-(2H)-dione]
Ki (α1A adrenoceptor): 1070 nM
Kb [1]: 23.4 nM
Ki (α1B adrenoceptor): > 1000 nM
Kb (α1D adrenoceptor (aorta)): 100 nM
Selectivity α1B/α1A [2]: 3.3
Selectivity α1D/α1A [2]: 14
Kb [2]: 7.08 nM

Further compounds by falling Ki (α1A adrenoceptor), results first:

Ki (α1A adrenoceptor): 0.5 nM
α1B/α1A (α1A adrenoceptor): 100
Kb [1]: 12.6 nM
Ki (α1B adrenoceptor): 50 nM
Kb (α1D adrenoceptor (aorta)): 0.741 nM
Selectivity α1B/α1A [2]: 7.4
Selectivity α1D/α1A [2]: 0.43
Kb [2]: 1.7 nM
Compound: Cl.O=C1C2CC=CCC2C(=O)N1CCCN1CCN(c2ccccc2OC2CCCC2)CC1 (centres unmarked) [Compound No. 43, 2-[3-{4-(2-Cyclopentyloxyphenyl)piperazin-1-yl}propyl]-3a,4,7,7a-tetrahydro-1H-isoindole-1,3(2H)-dione hydrochloride]

Ki (α1A adrenoceptor): 0.26 nM
α1B/α1A (α1A adrenoceptor): 181
Kb [1]: 0.275 nM
Ki (α1B adrenoceptor): 47 nM
Kb (α1D adrenoceptor (aorta)): 0.148 nM
Selectivity α1B/α1A [2]: 0.7
Selectivity α1D/α1A [2]: 0.38
Kb [2]: 0.389 nM
Compound: O=C1CCCC(=O)N1CCCN1CCN(c2ccccc2OCC(F)(F)F)CC1 [compound 03]

Ki (α1A adrenoceptor): 0.24 nM
α1B/α1A (α1A adrenoceptor): 142
Kb [1]: 11 nM
Ki (α1B adrenoceptor): 34 nM
Kb (α1D adrenoceptor (aorta)): 1.58 nM
Selectivity α1B/α1A [2]: 18
Selectivity α1D/α1A [2]: 2.6
Kb [2]: 0.603 nM
Compound: Cl.O=C1C2CCC(O)CC2C(=O)N1CCCN1CCN(c2ccccc2OCC(F)(F)F)CC1 (centres unmarked) [Compound No. 33, 2-[3-{4-(2-(2,2,2-Trifluoroethoxy)phenyl)piperazin-1-yl}propyl]-5-hydroxy-3a,4,5,6,7,7a-hexahydro-1H-isoindole-1,3(2H)-dione hydrochloride]

Ki (α1A adrenoceptor): 0.17 nM
α1B/α1A (α1A adrenoceptor): 159
Kb [1]: 1.29 nM
Ki (α1B adrenoceptor): 27 nM
Kb (α1D adrenoceptor (aorta)): 0.0316 nM
Selectivity α1B/α1A [2]: 7.07
Selectivity α1D/α1A [2]: 0.17
Kb [2]: 0.182 nM
Compound: Cl.O=C1C2CC=CCC2C(=O)N1CCCN1CCN(c2ccccc2OCC(F)(F)F)CC1 (centres unmarked) [compound 02, 2-[3-{4-(2-(2,2,2-Trifluoroethoxy)phenyl)piperazin-1-yl}propyl]-3a, 4,7,7a-tetrahydro-1H-isoindole-1,3(2H)-dione hydrochloride]
